Patent US20220184060A1, “PHARMACEUTICAL COMPOSITION COMPRISING SPHERICAL AGGLOMERATES OF TIMAPIPRANT” (Chiesi Farmaceutici S.p.A., priority 2018, published 2022)
Values joined by “and” are separate entries in the source; they are usually repeats but may differ in a detail not shown here. Equal values may be shown once.

What was measured:
Format in all cases: physicochemical
[1] = Flowability of the blend material (API with tablet excipients) before compression; settings: blend material of API with the excipients of Table 3; for Flow properties of the blend (in words): suitability for direct compression
Method: The spherical agglomerates of timapiprant or the micronized timapiprant, together with the microcrystalline cellulose, the croscarmellose sodium, the poloxamer, the sodium lauryl sulphate and the colloidal silicon dioxide in the above amounts, are sieved in a sieve of 1.2 mm. The lactose monohydrate is then added, and the resulting mixture is blended in a free fall blender for at least 15 minutes. The magnesium stearate is added to the obtained mixture which is further blended in the free fall blender for additional 3 minutes.

[2] = Specific surface area (SSA) by BET nitrogen adsorption (TriStar, Micromeritics); settings: degassing 2 hours at 40° C.
Method: The specific surface areas (SSA) of spherical agglomerates of timapiprant obtained according to Examples 3, 5,7 and the micronized timapiprant were measured was determined by BET nitrogen adsorption using the TriStar of Micromeritics apparatus according to following parameters: • Isotherm, Adsorbing/Desorbing Run: 0 to 1 p/p0 • Vials: ⅜ Inch, Degassing Pre-analysis: 2 hours at 40° C., Nitrogen as adsorbate • Preparation: Evacuation Rate 10 mmHg/s; Unrestricted evacuation from 5 mmHg • Vacuum setpoint: 10 mmHg, Evacuation time: 1 hour • Leak Test Duration: 120 s, Outgas Test Duration: 180 s • Measure p0 at intervals during the analysis, Enter the analysis bath temperature: […]77 kelvin • Equilibration Interval: 5 s; Minimum Equilibration Delay at p/p0≥0,995 per 600 s.

[3] = Primary particle size distribution by laser diffraction (Malvern Mastersizer 2000) after break up of spherical agglomerates; settings: for PSD d (0.1), mean result / PSD d (0.5), mean result: mean of 10 acquisitions, primary particles after sonication in water; for PSD d (0.1) / PSD d (0.5): single acquisition (Measure 1-10), primary particles, agglomerates dispersed in water by 10 minutes sonication, 1500 rpm
Method: The primary particle size distribution results are produced by means of a Malvern 2000 laser diffraction equipment by the analysis of the primary particles in suspension.
The particle size distribution laser diffraction measures were performed using a Malvern Mastersizer 2000 equipped with a Hydro 2000S cell for the wet suspension of the Timapiprant primary particles. The spherical agglomerates obtained according to the Examples 3 and 5, were dispersed in water by means of 10 minutes sonication and then added to the cell, previously filled with water, until an obscuration within 5-10% was obtained.

Structure (SMILES)	Flowability (s/100 g) [1]	Flow properties of the blend (in words) [1]	SSA (specific surface area) [2]	SSA (specific surface area) ([2]; listed as micronized timapiprant)	PSD d (0.1), mean result [3] [μm]	PSD d (0.5), mean result [3] [μm]	PSD d (0.1) [3]	PSD d (0.5) [3]	Flowability (s/100 g) ([1]; listed as Spherical agglomerates of timapirpant) [sec s/100 g]
Cc1c(Cc2ccc3ccccc3n2)c2cc(F)ccc2n1CC(=O)O [Micronized Timapiprant, reference compound]	∞	very poor flow properties	8.0 m^2/g and 7.8 m^2/g	less than 8.5 m^2/g					
Cc1c(Cc2ccc3ccccc3n2)c2cc(F)ccc2n1CC(=O)O [Spherical agglomerates of timapiprant of Example 3] [5-fluoro-2-methyl-3-(quinolin-2-ylmethyl)-1H-indol-1-yl)acetic acid]			13.1 m^2/g		0.28	0.56	0.28 μm and 0.275 μm and 0.278 μm and 0.279 μm	0.56 μm and 0.555 μm and 0.561 μm and 0.559 μm	
Cc1c(Cc2ccc3ccccc3n2)c2cc(F)ccc2n1CC(=O)O [Spherical agglomerates of timapiprant of Example 5] [5-fluoro-2-methyl-3-(quinolin-2-ylmethyl)-1H-indol-1-yl)acetic acid]		good flowability	10.1 m^2/g		0.31	0.64	0.314 μm and 0.315 μm	0.64 μm and 0.642 μm and 0.638 μm and 0.641 μm and 0.639 μm	4
Cc1c(Cc2ccc3ccccc3n2)c2cc(F)ccc2n1CC(=O)O [Spherical agglomerates of timapiprant of Example 7] [5-fluoro-2-methyl-3-(quinolin-2-ylmethyl)-1H-indol-1-yl)acetic acid]			15.5 m^2/g						
